This passage reports Activity results from ChEMBL document CHEMBL2057079, “Activity-based fluorescent probes for monitoring sulfatase activity” (Bioorg Med Chem Lett, 2012).

Activity calls are given as the source filed them. The calls are words filed in the database; no cut-off is given here.

The species entered for the experiment is Homo sapiens. Kind of experiment: Binding affinity to arylsulfatase assessed as fluorescence quenching at 10 uM at pH 7.5 after 1.5 hrs by fluorescence spectrophotometry.

Regarding `CN(C)c1cccc2c(S(=O)(=O)NCC(O)c3ccc(OS(=O)(=O)O)cc3)cccc12` (stereo unspecified), the outcome was inactive.
